From patent publication US20170197935A1, “INHIBITORS OF DNA GYRASE FOR THE TREATMENT OF BACTERIAL INFECTIONS” (Vitas Pharma Research Private Limited, priority 2012, published 2017)
Converted amounts (≈) assume the structure as drawn. Read-outs that look alike come from different tables or passages of the source.

Experiments:
E. coli (ATCC 25922) = assay: MIC by microbroth dilution, E. coli ATCC 25922; assay type: cell-based; conditions: Escherichia coli
Description: (§1) Shown below are the microbiological activities of representative compounds of Formula I of the invention. The compounds were tested by the microbroth dilution method (National committee for Clinical Laboratory Standards, 2011, M07-08) and the Minimum Inhibitory Concentration (MIC) was determined.
(§2) Analysis of microbiological activity of compounds shown below are the microbiological activities of representative compounds of Formula II of the invention. The compounds were tested by the microbroth dilution method as per the reference in Example 1.

[1] = test system: Methicillin resistant Staphylococcus aureus (ATCC 33591); assay: MIC by microbroth dilution, MRSA ATCC 33591; assay type: cell-based
Description: as §1, §2

[2] = test system: Enterococcus faecalis (ATCC 29212); assay: MIC by microbroth dilution, Enterococcus faecalis ATCC 29212; assay type: cell-based; conditions: ATCC29212
Description: (§3) Shown below are the microbiological activities of representative compounds of Formula I of the invention. The compounds were tested by the microbroth dilution method (National committee for Clinical Laboratory Standards, 2011, […]-08) and the Minimum Inhibitory Concentration (MIC) was determined.

E. coli Gyrase = biological target: T1, E. coli Gyrase (Escherichia coli, UniProt P0AES4+P0AES6); assay: in vitro Gyrase supercoiling assay (Inspiralis kit); assay type: biochemical; conditions: 1 hour at 37° C., read-out: % inhibition of DNA supercoiling activity; for inhibition at 0.1 µM: 0.1 μM compound; for inhibition at 1 µM: 1 μM compound
T1 construct: purchased Inspiralis
Description: To test for target specificity, the activity of compounds was evaluated in an in vitro Gyrase assay using recombinant Gyrase protein as per the instructions of the assay kit (Inspiralis). The assay measures the ability of E. coli Gyrase to convert relaxed plasmid DNA into the supercoiled form. The enzyme is incubated with the substrate (relaxed DNA) in the presence and absence of compounds for 1 hour at 37° C. and the DNA is run on a gel at low voltage for several hours. The gel is then stained with Ethidium bromide and DNA in the different forms is quantified using DNA imaging and quantification software (Image Lab). The activity of the enzyme is proportional to the amount of supercoiled form detected.

[3] = test system: K. pneumoniae (ATCC 700603); assay: MIC by microbroth dilution, K. pneumoniae ATCC 700603; assay type: cell-based; conditions: Klebsiella pneumoniae, ATCC700603, Formula I compounds
Description: as §1, §2

MRSA E9749 = assay: MIC against FQ resistant clinical strain MRSA E9749; assay type: cell-based; conditions: Staphylococcus aureus, fluoroquinolone resistant clinical strain, read-out: MIC against FQ resistant strains, MRSA E9749
Description: as §1
(§4) To test if compounds are able to overcome fluoroquinolone resistance, we have determined the MICS against Fluoroquinolone (FQ) resistant clinical strains of MRSA and E. coli.

[4] = test system: Staphylococcus aureus (ATCC 29213); assay: MIC by microbroth dilution, Staphylococcus aureus ATCC 29213; assay type: cell-based; conditions: ATCC29213
Description: as §3

[5] = test system: Moraxella catarrhalis (ATCC 8176); assay: MIC by microbroth dilution, Moraxella catarrhalis ATCC 8176; assay type: cell-based; conditions: ATCC8176
Description: as §3

MRSA E9823 = assay: MIC against FQ resistant clinical strain MRSA E9823; assay type: cell-based; conditions: Staphylococcus aureus, fluoroquinolone resistant clinical strain, read-out: MIC against FQ resistant strains, MRSA E9823
Description: as §1, §4

[6] = test system: Streptococcus pneumoniae (ATCC 6301); assay: MIC by microbroth dilution, Streptococcus pneumoniae ATCC 6301; assay type: cell-based; conditions: ATCC6301
Description: as §3

hERG [7] = biological target: T2, hERG (Homo sapiens, UniProt Q12809); conditions: BMCL, 21, 7489-7495, 2011; cited from earlier work
[8] = biological target: T3, ciprofloxacin resistant recombinant Gyrase protein (with mutation S83L) (Escherichia coli, UniProt P0AES4+P0AES6, S83L); assay: Gyrase supercoiling assay with ciprofloxacin resistant Gyrase (S83L); assay type: biochemical; conditions: read-out: Target specificity: % inhibition of supercoiling activity
T3 construct: purchased Inspiralis
Description: The enzyme is incubated with the substrate (relaxed DNA) in the presence and absence of compounds for 1 hour at 37° C. and the DNA is run on a gel at low voltage for several hours. The amount of supercoiled DNA is quantified using DNA imaging and quantification software (Image Lab). The activity of the enzyme is proportional to the amount of supercoiled form detected.

E. faecalis ATCC 51299 = assay: MIC by microbroth dilution, E. faecalis ATCC 51299; assay type: cell-based; conditions: Enterococcus faecalis, ATCC51299, Formula II compounds, read-out: Minimum Inhibitory Concentration (MIC) E. faecalis ATCC 51299
Description: as §1, §2

Pseudomonas ATCC 27853 = assay: MIC by microbroth dilution, Pseudomonas ATCC 27853; assay type: cell-based; conditions: ATCC27853, Formula II compounds, read-out: Minimum Inhibitory Concentration (MIC) Pseudomonas ATCC 27853
Description: as §1, §2

[9] = Single dose pharmacokinetics in male Swiss albino mice; assay type: in vivo; conditions: mouse, in vivo; for bioavailability: oral 10 mg/kg vs i.v. 5 mg/kg
Description: (§5) Compounds were dosed to male Swiss albino mice to determine the pharmacokinetic profiles.
as §5

hERG [10] = biological target: T2, hERG; assay: biochemical
Description: To test the ability of the VT-03 compounds to bind the hERG channel, membranes expressing the hERG channel were incubated with radiolabeled Astemizole and displacement of the labeled ligand in the presence of compounds was measured.
To test the ability of the VT-03 compounds (of Formula II) to bind the hERG channel, membranes expressing the hERG channel were incubated with radiolabeled Astemizole and displacement of the labeled ligand in the presence of compounds was measured.

Acinetobacter BAA747 = assay: MIC by microbroth dilution, Acinetobacter BAA747; assay type: cell-based; conditions: Formula II compounds, read-out: Minimum Inhibitory Concentration (MIC) Acinetobacter BAA747
Description: as §1, §2

E. coli U1306 = assay: MIC against FQ resistant clinical strain E. coli U1306; assay type: cell-based; conditions: Escherichia coli, fluoroquinolone resistant clinical strain, read-out: MIC against FQ resistant strains, E. coli U1306
Description: (§6) The compounds were tested by the microbroth dilution method (National committee for Clinical Laboratory Standards, 2011, M07-08) and the Minimum Inhibitory Concentration (MIC) was determined.

E. coli E1851 = assay: MIC against FQ resistant clinical strain E. coli E1851; assay type: cell-based; conditions: Escherichia coli, fluoroquinolone resistant clinical strain, read-out: MIC against FQ resistant strains, E. coli E1851
Description: as §6

E. coli 86 = assay: MIC against FQ resistant clinical strain E. coli 86; assay type: cell-based; conditions: Escherichia coli, fluoroquinolone resistant clinical strain, read-out: MIC against FQ resistant strains, E. coli 86
Description: as §6

E. coli U5690 = assay: MIC against FQ resistant clinical strain E. coli U5690; assay type: cell-based; conditions: Escherichia coli, fluoroquinolone resistant clinical strain, read-out: MIC against FQ resistant strains, E. coli U5690
Description: as §6

[11] = ATCC25922, Formula I compounds, read-out: MIC E. coli (ATCC 25922)
[12] = ATCC33591, Formula I compounds, read-out: MIC Methicillin resistant Staphylococcus aureus (ATCC 33591)
[13] = ATCC25922, Formula II compounds, read-out: Minimum Inhibitory Concentration (MIC) E. coli ATCC 25922
[14] = Formula II compounds, read-out: Minimum Inhibitory Concentration (MIC) MRSA ATCC 33591

| Compound | MIC (E. coli (ATCC 25922); [11]) [µg/mL] | MIC [1, 12] [µg/mL] | MIC [2] [µg/mL] | inhibition at 0.1 µM (E. coli Gyrase) [%] | inhibition at 1 µM (E. coli Gyrase) [%] | MIC [3] [µg/mL] | MIC (MRSA E9749) [µg/mL] | MIC [4] [µg/mL] | MIC [5] [µg/mL] | MIC (MRSA E9823) [µg/mL] | MIC [6] [µg/mL] | MIC (E. coli (ATCC 25922); [13]) [µg/mL] | MIC [1, 14] [µg/mL] | inhibition at 0.1 µM [8] [%] | inhibition at 1 µM [8] [%] | MIC (E. faecalis ATCC 51299) [µg/mL] | MIC (Pseudomonas ATCC 27853) [µg/mL] | AUC(0-t) ([9]; iv, 5 mg/kg) [ng·h/mL] | Cmax ([9]; iv, 5 mg/kg) [ng/mL] | Tmax ([9]; iv, 5 mg/kg) [min] | other results |
| --- | --- | --- | --- | --- | --- | --- | --- | --- | --- | --- | --- | --- | --- | --- | --- | --- | --- | --- | --- | --- | --- |
| COc1ccc2ncc(=O)n(CCN3CCC(NCc4ccc(C)c([N+](=O)[O-])c4)CC3)c2c1 [VT-03-00062] | 0.5 (≈ 1.11 µM) | 0.015 (≈ 0.0332 µM) | 0.12 (≈ 0.266 µM) | 91.5 | 98.7 | 8 (≈ 17.7 µM) | 0.015 (≈ 0.0332 µM) | ≤ 0.0075 | ≤ 0.06 | ≤ 0.0075 | 0.015 (≈ 0.0332 µM) |  |  |  |  |  |  |  |  |  |  |
| COc1ccc2ncc(C#N)c(CCN3CCC(NCc4cc5c(cn4)OCS5)CC3)c2c1 [GSK299423] |  |  |  |  |  |  |  |  |  |  |  |  |  |  |  |  |  |  |  |  | hERG binding liability (in words) (hERG [7]): serious hERG binding liability |
| Cc1ccc(CNC2CCN(CCn3c(=O)cnc4ccc(Cl)nc43)CC2)cc1[N+](=O)[O-] [VT-03-00118] |  |  |  |  |  |  |  |  |  |  |  | 0.25 (≈ 0.547 µM) | 0.015 (≈ 0.0328 µM) | 91.5 | 89 | 0.125 (≈ 0.274 µM) | 8 (≈ 17.5 µM) | 497 | 913 | 9.6 | half-life ([9]; iv, 5 mg/kg): 22.2 min; bioavailability [9]: 1.12%; AUC(0-t) ([9]; oral, 10 mg/kg): 9.3 ng·h/mL; Cmax ([9]; oral, 10 mg/kg): 18.6 ng/mL; Tmax ([9]; oral, 10 mg/kg): 60 min; half-life ([9]; oral, 10 mg/kg): 666 min; IC50 (hERG [10]): > 30 µM; MIC (Acinetobacter BAA747): 0.25 µg/mL (≈ 0.547 µM) |
| COc1ccc2ncc(C#N)c(CCN3CCC(NCc4csc([N+](=O)[O-])c4)CC3)c2c1 [VT-03-00053] | 4 (≈ 8.86 µM) | 0.25 (≈ 0.554 µM) | 2 (≈ 4.43 µM) |  |  | > 32 |  | 0.25 (≈ 0.554 µM) | 0.5 (≈ 1.11 µM) |  | 1 (≈ 2.21 µM) |  |  |  |  |  |  |  |  |  | IC50 (hERG [10]): > 30 µM |
| COc1ccc2ncc(=O)n(CCN3CCC(NCc4csc([N+](=O)[O-])c4)CC3)c2c1 [VT-03-00057] | 2 (≈ 4.51 µM) | 0.25 (≈ 0.564 µM) | 2 (≈ 4.51 µM) | 61.4 | 90.6 | > 32 | 0.25 (≈ 0.564 µM) | 0.12 (≈ 0.271 µM) | 0.5 (≈ 1.13 µM) | 0.25 (≈ 0.564 µM) | 0.5 (≈ 1.13 µM) |  |  |  |  |  |  |  |  |  | MIC (E. coli U1306): 16 µg/mL (≈ 36.1 µM); MIC (E. coli E1851): 2 µg/mL (≈ 4.51 µM); MIC (E. coli 86): 16 µg/mL (≈ 36.1 µM); MIC (E. coli U5690): 8 µg/mL (≈ 18 µM) |
| COc1ccc2ncc(=S)n(CCN3CCC(NCc4ccc(C)c([N+](=O)[O-])c4)CC3)c2c1 [VT-03-00127] |  |  |  |  |  |  |  |  |  |  |  | 1 (≈ 2.14 µM) | 0.125 (≈ 0.267 µM) | 39 | 72 | 1 (≈ 2.14 µM) | 8 (≈ 17.1 µM) | 527 | 478 | 9.6 | half-life ([9]; iv, 5 mg/kg): 120 min; bioavailability [9]: 18.8%; AUC(0-t) ([9]; oral, 10 mg/kg): 198 ng·h/mL; Cmax ([9]; oral, 10 mg/kg): 97 ng/mL; Tmax ([9]; oral, 10 mg/kg): 30 min; half-life ([9]; oral, 10 mg/kg): 173 min; MIC (Acinetobacter BAA747): 1 µg/mL (≈ 2.14 µM) |
